In the CheMixHub ionic liquid set:

Experiment: xn = mol fraction of the nth substance listed

CC[n+]1ccn(C)c1.N#C[S-] + CC[n+]1ccn(C)c1.O=S(=O)([O-])C(F)(F)F
Settings	viscosity [mPa·s]
293 K, 100 kPa, x1 = 0.5	36.4

CCCC[P+](c1ccccc1)(c1ccccc1)c1ccccc1.[Br-] + OCCO
100 kPa, x2 = 0.9756
Settings	viscosity [mPa·s]
303.15 K	21.6
313.15 K	18.5
323.15 K	15.5
333.15 K	14
343.15 K	12
353.15 K	10.5

C[N+](C)(C)CCO.O=S(=O)([N-]S(=O)(=O)C(F)(F)F)C(F)(F)F + OCCO
100 kPa, x1 = 0.14
Settings	electrical conductivity [S/m]	viscosity [mPa·s]
303 K	0.381	17.9
323 K	0.73	8.85

CCOCC[n+]1ccn(CCC#N)c1.O=S(=O)([N-]S(=O)(=O)C(F)(F)F)C(F)(F)F + CS(C)=O
101.3 kPa
Settings	electrical conductivity [S/m]	viscosity [mPa·s]
293.15 K, x1 = 0.0989	0.00113	–
293.15 K, x1 = 0.1981	0.00401	–
293.15 K, x1 = 0.2776	0.00964	–
293.15 K, x1 = 0.597	0.0383	59.7
293.15 K, x1 = 0.798	–	102.3
293.15 K, x1 = 0.89	0.0703	210.3
303.15 K, x1 = 0.0989	0.00132	–
303.15 K, x1 = 0.1981	0.00478	–
303.15 K, x1 = 0.721	0.0577	40.7
313.15 K, x1 = 0.0989	0.00155	–
313.15 K, x1 = 0.1981	0.00607	–
323.15 K, x1 = 0.0989	0.00196	3.457
323.15 K, x1 = 0.1981	0.00772	4.04
323.15 K, x1 = 0.3971	0.0389	9.78
323.15 K, x1 = 0.5029	0.0621	13.05
323.15 K, x1 = 0.721	0.108	20.71

C[N+](C)(C)CCO.O=S(=O)([N-]S(=O)(=O)C(F)(F)F)C(F)(F)F + OCCOCCOCCOCCO
Settings	viscosity [mPa·s]
298.15 K, 101 kPa, x2 = 0	144.8

CCCC[P+](CCCC)(CCCC)CCCC.F[B-](F)(F)F + C1CCOC1 + C1COCO1
298.15 K, 100 kPa
Settings	viscosity [mPa·s]
x1 = 0.0007279, x2 = 0.2549	0.563
x1 = 0.0007522, x2 = 0.5064	0.531
x1 = 0.0007834, x2 = 0.7544	0.499
x1 = 0.001095, x2 = 0.2548	0.569
x1 = 0.001131, x2 = 0.5062	0.537
x1 = 0.001182, x2 = 0.7541	0.505
x1 = 0.001455, x2 = 0.2547	0.575
x1 = 0.001511, x2 = 0.506	0.542
x1 = 0.001573, x2 = 0.7538	0.51
x1 = 0.001821, x2 = 0.2546	0.581
x1 = 0.001889, x2 = 0.5058	0.548
x1 = 0.001971, x2 = 0.7535	0.516
x1 = 0.00218, x2 = 0.2545	0.588
x1 = 0.002268, x2 = 0.5056	0.554
x1 = 0.002368, x2 = 0.7532	0.522
x1 = 0.002547, x2 = 0.2544	0.595
x1 = 0.002646, x2 = 0.5054	0.561
x1 = 0.002758, x2 = 0.7529	0.528

CC(=O)[O-].CCOCCn1cc[n+](C)c1 + O
100 kPa
Settings	electrical conductivity [S/m]	viscosity [mPa·s]
293.15 K, x1 = 0.9129	0.288	35.75
293.15 K, x1 = 0.9447	0.25	36.71
298.15 K, x1 = 0.9447	0.31	28.98
303.15 K, x1 = 0.9447	0.394	23.12
308.15 K, x1 = 0.8821	0.586	17.7
313.15 K, x1 = 0.8524	0.764	14.07
313.15 K, x1 = 0.8821	0.719	14.45
313.15 K, x1 = 1	0.568	15.8

Cc1ccccc1 + CCCCCC[N+]1(C)CCCC1.O=S(=O)([N-]S(=O)(=O)C(F)(F)F)C(F)(F)F
Settings	viscosity [mPa·s]
308.15 K, 100 kPa, x1 = 1	0.509

OCCN(CCO)CCO + CCOS(=O)(=O)[O-].CC[n+]1ccn(C)c1
100 kPa
Settings	electrical conductivity [S/m]	viscosity [mPa·s]
293.15 K, x1 = 0.153	–	126.2
293.15 K, x1 = 0.617	–	159.3
293.15 K, x1 = 0.967	–	714
298.15 K, x1 = 0.787	0.0457	202.4
298.15 K, x1 = 0.929	0.0087	395
298.15 K, x1 = 0.967	0.00372	478
298.15 K, x2 = 0.003	0.000422	–
298.15 K, x2 = 0.006	0.00076	–
298.15 K, x2 = 0.019	0.00206	–
303.15 K, x1 = 0.617	–	89
303.15 K, x1 = 0.866	–	203.4
303.15 K, x1 = 0.929	–	274.8
303.15 K, x1 = 0.967	–	328
303.15 K, x2 = 0.006	–	389
313.15 K, x1 = 0.153	0.66	50.4
313.15 K, x2 = 0.003	0.00117	–
313.15 K, x2 = 0.006	0.00211	–

C[N+]1(CCOCC[N+]2(C)CCCC2)CCCC1.N#C[N-]C#N.N#C[N-]C#N + CC[n+]1ccn(C)c1.N#C[N-]C#N + O=S(=O)([N-]S(=O)(=O)C(F)(F)F)C(F)(F)F.[Li+]
100 kPa, x1 = 0.2938, x2 = 0.621
Settings	electrical conductivity [S/m]
298 K	0.622
303 K	0.76
313 K	1.04
323 K	1.38
333 K	1.76
343 K	2.24
